Measurements taken from article PMC9457746, “Synthesis of Sulfonamides Incorporating Piperidinyl-Hydrazidoureido and Piperidinyl-Hydrazidothioureido Moieties and Their Carbonic Anhydrase I, II, IX and XII Inhibitory Activity” (Molecules, 2022).

How the values were obtained:
hCA XII = hCA XII (Homo sapiens, UniProt O43570); assay: stopped flow CO2 hydrase assay, hCA XII inhibition
Procedure: (§1) An Applied Photophysics stopped-flow instrument has been used for assaying the CA catalyzed CO2 hydration activity using the Khalifah procedure [23]. The used indicator was phenol red (0.2 mM), the absorbance maximum was of 557 nm, and the buffer was 20 mM Hepes (pH 7.5), whereas 20 mM Na2SO4 were employed for maintaining the ionic strength constant. […] Uncatalyzed rates were subtracted from the observed total rates. […] Inhibitor and enzyme solutions were preincubated together for 15 min, for assuring the formation of the E–I complex. The inhibition constants were obtained by non-linear least squares using the Cheng–Prusoff equation, as reported earlier [24, 25, 26] and represent the mean from at least three different determinations.

hCA II = hCA II (Homo sapiens, UniProt P00918); assay: stopped flow CO2 hydrase assay, hCA II inhibition
Procedure: as §1

hCA IX = hCA IX (Homo sapiens, UniProt Q16790); assay: stopped flow CO2 hydrase assay, hCA IX inhibition
Procedure: as §1

hCA I = hCA I (Homo sapiens, UniProt P00915); assay: stopped flow CO2 hydrase assay, hCA I inhibition
Chain of hCA I (P00915 whole entry): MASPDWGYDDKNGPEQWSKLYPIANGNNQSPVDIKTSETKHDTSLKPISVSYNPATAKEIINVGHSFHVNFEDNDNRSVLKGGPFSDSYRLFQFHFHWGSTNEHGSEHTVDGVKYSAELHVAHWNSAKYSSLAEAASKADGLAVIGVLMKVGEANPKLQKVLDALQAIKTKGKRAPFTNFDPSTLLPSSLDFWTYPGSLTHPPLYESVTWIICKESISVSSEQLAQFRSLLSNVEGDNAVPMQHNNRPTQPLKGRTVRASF
Procedure: as §1

Chain of hCA XII (O43570 25-354): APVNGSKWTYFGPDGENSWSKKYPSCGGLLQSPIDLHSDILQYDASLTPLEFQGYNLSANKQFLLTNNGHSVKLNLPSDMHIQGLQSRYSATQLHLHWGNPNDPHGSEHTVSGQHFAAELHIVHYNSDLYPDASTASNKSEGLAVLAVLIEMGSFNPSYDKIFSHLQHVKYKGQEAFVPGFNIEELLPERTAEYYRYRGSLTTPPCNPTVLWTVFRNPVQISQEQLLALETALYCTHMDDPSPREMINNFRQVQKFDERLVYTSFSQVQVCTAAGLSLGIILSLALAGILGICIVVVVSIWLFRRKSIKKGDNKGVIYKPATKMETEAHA

Structure (SMILES) | Ki (hCA XII) | Ki (hCA II) | melting point | Ki (hCA IX) | Ki (hCA I)
NS(=O)(=O)c1ccc(C(=O)N2CCC(C(=O)NNC(=S)Nc3c(F)cccc3F)CC2)cc1 [Compound 6q, N-(2,6-Difluorophenyl)-2-(1-(4-sulfamoylbenzoyl)piperidine-4-carbonyl)hydrazinecarbothioamide] | 5.6 nM | 28.2 nM | 242 to 243 °C | 5.9 nM | 65.4 nM
NS(=O)(=O)c1ccc(C(=O)N2CCC(C(=O)NNC(=S)NCc3ccccc3)CC2)cc1 [Compound 6v, N-Benzyl-2-(1-(4-sulfamoylbenzoyl)piperidine-4-carbonyl)hydrazinecarbothioamide] | 25 nM | 71.4 nM | > 250 °C | 24.2 nM | 198 nM
NS(=O)(=O)c1ccc(C(=O)N2CCC(C(=O)NNC(=S)NC3CCCCC3)CC2)cc1 [Compound 6y, N-Cyclohexyl-2-(1-(4-sulfamoylbenzoyl)piperidine-4-carbonyl)hydrazinecarbothioamide] | 19.6 nM | 5.7 nM | 183 to 184 °C | 1.7 nM | 118 nM

Further compounds by falling Ki (hCA XII), results first:

Ki (hCA XII) | Ki (hCA II) | melting point | Ki (hCA IX) | Ki (hCA I) | Structure (SMILES)
29.9 nM | 29.3 nM | 240 to 241 °C | 31.7 nM | 178 nM | COc1ccc(CNC(=S)NNC(=O)C2CCN(C(=O)c3ccc(S(N)(=O)=O)cc3)CC2)cc1 [Compound 6w, N-(4-Methoxybenzyl)-2-(1-(4-sulfamoylbenzoyl)piperidine-4-carbonyl)hydrazinecarbothioamide]
18.4 nM | 38.5 nM | 209 to 210 °C | 9 nM | 277 nM | Cc1ccccc1NC(=S)NNC(=O)C1CCN(C(=O)c2ccc(S(N)(=O)=O)cc2)CC1 [Compound 6r, 2-(1-(4-sulfamoylbenzoyl)piperidine-4-carbonyl)-N-(o-tolyl)hydrazine-1-carbothioamide]
9.5 nM | 89.6 nM | 233 to 234 °C | 4.7 nM | 308 nM | Cc1cccc(C)c1NC(=S)NNC(=O)C1CCN(C(=O)c2ccc(S(N)(=O)=O)cc2)CC1 [Compound 6u, N-(2,6-Dimethylphenyl)-2-(1-(4-sulfamoylbenzoyl)piperidine-4-carbonyl)hydrazinecarbothioamide]
